The values that follow come from patent US20240366770A1, “DEGRADATION OF BRUTON'S TYROSINE KINASE (BTK) BY CONJUGATION OF BTK INHIBITORS WITH E3 LIGASE LIGAND AND METHODS OF USE” (BeiGene Switzerland GmbH, priority 2021, published 2024).

Molecules are shown by their SMILES. Where two headings read alike, the source gives them in different places.

The subject of one test is HEK-293 cells. Nature of the test: HEK-293 cytotoxicity detection (CellTiter-Glo). The format is cell-based. The conditions noted are these: HEK-293 cells, 72 h incubation, CellTiter-Glo luminescence, IC50 of cell proliferation inhibition, read-out: HEK293. Put shortly:
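Four-parameter logistic fitting of percent inhibition versus concentration gives IC50. Luminescent ATP read-out (CellTiter-Glo) after 72 h compound treatment of HEK-293 cells, 8 doses in 4-fold steps from a 5 mM 500× DMSO stock, final DMSO 0.2%.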

The next test has as its target T1, BTK (Homo sapiens, UniProt Q06187).
T1 construct: High control=Cell group with added DMSO and without compound, indicating microplate readings without BTK degradation; endogenous in cells; host or cells: TMD-8
Nature of the test: BTK degradation in TMD-8 cells (HTRF assay). The format is cell-based. The note with it: 6 h treatment, IC50 (DC50) of BTK degradation. Put shortly: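 BTK remaining after compound treatment was measured by HTRF (337 nm excitation, 665/620 nm emission) in lysates of TMD-8 cells. Cells were exposed for 6 h to eight 6-fold-spaced concentrations in 0.2% DMSO. DC50 values were obtained from a Hill-equation fit (top, bottom, slope) of % inhibition.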

T1 sequence (Q06187 whole entry): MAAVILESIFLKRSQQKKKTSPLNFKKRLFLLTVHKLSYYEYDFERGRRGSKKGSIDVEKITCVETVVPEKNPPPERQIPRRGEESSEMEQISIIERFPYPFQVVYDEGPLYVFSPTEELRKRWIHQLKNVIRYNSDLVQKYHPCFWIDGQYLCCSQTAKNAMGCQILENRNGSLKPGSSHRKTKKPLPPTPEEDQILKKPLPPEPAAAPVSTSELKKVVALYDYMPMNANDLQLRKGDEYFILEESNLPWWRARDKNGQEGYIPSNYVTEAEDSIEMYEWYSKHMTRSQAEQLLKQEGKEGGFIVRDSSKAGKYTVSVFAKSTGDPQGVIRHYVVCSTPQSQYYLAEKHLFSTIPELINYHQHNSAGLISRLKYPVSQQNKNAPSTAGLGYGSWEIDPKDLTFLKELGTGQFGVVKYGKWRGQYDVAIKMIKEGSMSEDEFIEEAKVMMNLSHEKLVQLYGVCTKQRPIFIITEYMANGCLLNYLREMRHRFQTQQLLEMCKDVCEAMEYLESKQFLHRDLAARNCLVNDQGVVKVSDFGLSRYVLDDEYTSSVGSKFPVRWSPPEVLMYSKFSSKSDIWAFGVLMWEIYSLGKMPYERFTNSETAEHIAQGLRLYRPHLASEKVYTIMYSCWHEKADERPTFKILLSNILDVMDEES

With `COc1cc2c(cc1N1CCN(C3CCN(c4cccc(C5CCC(=O)NC5=O)c4)C3)CC1)[nH]c1ncnc(-c3ccc([C@@H](C)NC(=O)c4nc(C(C)(C)C)no4)c(C)c3F)c12` (stereo partly drawn) [Example 57, 3-(tert-butyl)-N-((1R)-1-(4-(7-(4-(1-(3-(2,6-dioxopiperidin-3-yl)phenyl)pyrrolidin-3-yl)piperazin-1-yl)-6-methoxy-9H-pyrimido[4,5-b]indol-4-yl)-3-fluoro-2-methylphenyl)ethyl)-1,2,4-oxadiazole-5-carboxamide], the IC50 in the test on HEK-293 cells (Homo sapiens) is over 10000 nM. At BTK, the DC50 (usually the concentration at which degradation of the target reaches its halfway point) was found to be 9.6 nM.

In the case of `Cc1cc(CCN2CCN(c3ccc4c(c3)[nH]c3ncnc(-c5ccc([C@@H](C)NC(=O)c6nc(C(C)(C)C)no6)c(C)c5)c34)CC2)ccc1C1CCC(=O)NC1=O` (stereo partly drawn) [Example 18, 3-(tert-butyl)-N-((1R)-1-(4-(7-(4-(4-(2,6-dioxopiperidin-3-yl)-3-methylphenethyl)piperazin-1-yl)-9H-pyrimido[4,5-b]indol-4-yl)-2-methylphenyl)ethyl)-1,2,4-oxadiazole-5-carboxamide], the IC50 in the test with HEK-293 cells (Homo sapiens) was over 10000 nM. At BTK, this compound had a DC50 of 0.607 nM.

Consider `Cc1cc(-c2ncnc3[nH]c4cc(C5CCN(CC6CCN(c7ccc(N8CCC(=O)NC8=O)cc7)CC6)CC5)cnc4c23)ccc1[C@@H](C)NC(=O)c1nc(C(C)(C)C)no1` [Example 38, (R)-3-(tert-butyl)-N-(1-(4-(7-(1-((1-(4-(2,4-dioxotetrahydropyrimidin-1(2H)-yl)phenyl)piperidin-4-yl)methyl)piperidin-4-yl)-9H-pyrido[2′,3′:4,5]pyrrolo[2,3-d]pyrimidin-4-yl)-2-methylphenyl)ethyl)-1,2,4-oxadiazole-5-carboxamide], for which the IC50 in the test with HEK-293 cells (Homo sapiens) stood at 3460 nM. The compound also returned a DC50 on BTK of 0.395 nM.

In the case of `COc1cc2c(cc1N1CCN(CC3CCN(c4ccc(N5CCC(=O)NC5=O)cc4)CC3)CC1)[nH]c1ncnc(-c3ccc([C@@H](C)NC(=O)c4noc(C(C)(C)C)n4)c(C)c3F)c12` [Example 58, (R)-5-(tert-butyl)-N-(1-(4-(7-(4-((1-(4-(2,4-dioxotetrahydropyrimidin-1(2H)-yl)phenyl)piperidin-4-yl)methyl)piperazin-1-yl)-6-methoxy-9H-pyrimido[4,5-b]indol-4-yl)-3-fluoro-2-methylphenyl)ethyl)-1,2,4-oxadiazole-3-carboxamide], the IC50 in the test on HEK-293 cells (Homo sapiens) was over 10000 nM. In addition, half-maximal degradation at BTK (DC50) was put at 1.87 nM.

As to `Cc1cc(-c2ncnc3[nH]c4cc(N5CCC6(CC5)CCN(C5CC(c7ccc(N[C@@H]8CCC(=O)NC8=O)cc7)C5)CC6)ccc4c23)ccc1[C@@H](C)NC(=O)c1nc(C(C)(C)C)no1` (stereo partly drawn) [Example 107, 3-(tert-butyl)-N—((R)-1-(4-(7-(9-((1S,3r)-3-(4-(((S)-2,6-dioxopiperidin-3-yl)amino)phenyl)cyclobutyl)-3,9-diazaspiro[5.5]undecan-3-yl)-9H-pyrimido[4,5-b]indol-4-yl)-2-methylphenyl)ethyl)-1,2,4-oxadiazole-5-carboxamide], the IC50 in the test on HEK-293 cells was 1030 nM. This compound also returned a DC50 at BTK of 2.99 nM.

Regarding `Cc1cc(-c2ncnc3[nH]c4cc(N5CCN(CC6CCN(c7ccc(N8CCC(=O)NC8=O)c(C)c7)CC6)CC5)ccc4c23)ccc1[C@@H](C)NC(=O)c1nc(C(C)(C)C)no1` [Example 8, (R)-3-(tert-butyl)-N-(1-(4-(7-(4-((1-(4-(2,4-dioxotetrahydropyrimidin-1(2H)-yl)-3-methylphenyl)piperidin-4-yl)methyl)piperazin-1-yl)-9H-pyrimido[4,5-b]indol-4-yl)-2-methylphenyl)ethyl)-1,2,4-oxadiazole-5-carboxamide], in the test on HEK-293 cells (Homo sapiens), the IC50 is over 10000 nM. Besides, on BTK, half-maximal degradation (DC50) was put at 0.481 nM.

For the compound `Cc1cc(-c2ncnc3[nH]c4cc(C5CCN(CCCOc6ccc(NC7CCC(=O)NC7=O)cc6)CC5)ccc4c23)ccc1CNC(=O)c1nc(C(C)(C)C)no1` (centres unmarked) [Example 3, 3-(tert-butyl)-N-(4-(7-(1-(3-(4-((2,6-dioxopiperidin-3-yl)amino)phenoxy)propyl)piperidin-4-yl)-9H-pyrimido[4,5-b]indol-4-yl)-2-methylbenzyl)-1,2,4-oxadiazole-5-carboxamide], the IC50 with HEK-293 cells (Homo sapiens) was over 10000 nM. The compound also came in with a DC50 on BTK of 2.15 nM.

As to `Cc1cc(-c2ncnc3[nH]c4cc(N5CCN(CC6CCN(c7ccc(N8CCC(=O)NC8=O)cc7)CC6)CC5)ccc4c23)ccc1[C@@H](C)NC(=O)c1nc(C2(C)CC2)no1` [Example 35, (R)—N-(1-(4-(7-(4-((1-(4-(2,4-dioxotetrahydropyrimidin-1(2H)-yl)phenyl)piperidin-4-yl)methyl)piperazin-1-yl)-9H-pyrimido[4,5-b]indol-4-yl)-2-methylphenyl)ethyl)-3-(1-methylcyclopropyl)-1,2,4-oxadiazole-5-carboxamide], in the test with HEK-293 cells (Homo sapiens), the IC50 was over 10000 nM. At BTK, this compound displayed a DC50 of 0.15 nM.

On to `COc1cc2c(cc1N1CCN([C@H]3C[C@@H](c4ccc(O[C@@H]5CCC(=O)NC5=O)cc4)C3)CC1)[nH]c1ncnc(-c3ccc([C@@H](C)NC(=O)c4nc(C(C)(C)C)no4)c(C)c3)c12` [Example 127, 3-(tert-butyl)-N—((R)-1-(4-(7-(4-((1S,3s)-3-(4-(((R)-2,6-dioxopiperidin-3-yl)oxy)phenyl)cyclobutyl)piperazin-1-yl)-6-methoxy-9H-pyrimido[4,5-b]indol-4-yl)-2-methylphenyl)ethyl)-1,2,4-oxadiazole-5-carboxamide], for which the IC50 in the test on HEK-293 cells (Homo sapiens) is over 10000 nM. For the same compound, on BTK, it took 2.49 nM to reach half-maximal degradation (DC50).

Take `Cc1c([C@@H](C)NC(=O)c2noc(C(C)(C)C)n2)ccc(-c2ncnc3[nH]c4cc(N5CCN(C6CC(c7ccc([C@@H]8CCC(=O)NC8=O)cc7)C6)CC5)ccc4c23)c1F` (stereo partly drawn) [Example 31, 5-(tert-butyl)-N—((R)-1-(4-(7-(4-(3-(4-((S)-2,6-dioxopiperidin-3-yl)phenyl)cyclobutyl)piperazin-1-yl)-9H-pyrimido[4,5-b]indol-4-yl)-3-fluoro-2-methylphenyl)ethyl)-1,2,4-oxadiazole-3-carboxamide]: in the test with HEK-293 cells (Homo sapiens), the IC50 was over 10000 nM. The compound also came in with a DC50 on BTK of 1.43 nM.

`Cc1c([C@@H](C)NC(=O)c2noc(C(C)(C)C)n2)ccc(-c2ncnc3[nH]c4cc(N5CCN(CCc6cccc7c6n(C)c(=O)n7C6CCC(=O)NC6=O)CC5)ccc4c23)c1F` (stereo partly drawn) [Example 82, 5-(tert-butyl)-N-((1R)-1-(4-(7-(4-(2-(1-(2,6-dioxopiperidin-3-yl)-3-methyl-2-oxo-2,3-dihydro-1H-benzo[d]imidazol-4-yl)ethyl)piperazin-1-yl)-9H-pyrimido[4,5-b]indol-4-yl)-3-fluoro-2-methylphenyl)ethyl)-1,2,4-oxadiazole-3-carboxamide]: the IC50 with HEK-293 cells (Homo sapiens) is over 10000 nM. The compound further had a DC50 on BTK of 3.17 nM.

Regarding `Cc1cc(-c2ncnc3[nH]c4cc(C5CCN(CC6CCN(c7ccc(N8CCC(=O)NC8=O)cc7)CC6)C5)ccc4c23)ccc1[C@@H](C)NC(=O)c1nc(C(C)(C)C)no1` (stereo partly drawn) [Example 12, 3-(tert-butyl)-N-((1R)-1-(4-(7-(1-((1-(4-(2,4-dioxotetrahydropyrimidin-1(2H)-yl)phenyl)piperidin-4-yl)methyl)pyrrolidin-3-yl)-9H-pyrimido[4,5-b]indol-4-yl)-2-methylphenyl)ethyl)-1,2,4-oxadiazole-5-carboxamide], in the test on HEK-293 cells (Homo sapiens), the IC50 was 3640 nM. Moreover, at BTK, the DC50 is 0.613 nM.

With `Cc1cc(-c2ncnc3[nH]c4cc(N5CCN(C6CC(c7ccc([C@@H]8CCC(=O)NC8=O)cc7)C6)CC5)ccc4c23)c(F)cc1[C@@H](C)NC(=O)c1nc(C2(C)CC2)no1` (stereo partly drawn) [Example 90, N—((R)-1-(4-(7-(4-(3-(4-((S)-2,6-dioxopiperidin-3-yl)phenyl)cyclobutyl)piperazin-1-yl)-9H-pyrimido[4,5-b]indol-4-yl)-5-fluoro-2-methylphenyl)ethyl)-3-(1-methylcyclopropyl)-1,2,4-oxadiazole-5-carboxamide], in the test on HEK-293 cells (Homo sapiens), the IC50 was over 10000 nM. At BTK, the DC50 stood at 0.86 nM.

Take `Cc1cc(-c2ncnc3[nH]c4cc(N5CCN(C6CC(c7ccc(C8CCC(=O)NC8=O)cc7)C6)CC5)ccc4c23)ccc1[C@@H](C)NC(=O)c1nc(C(C)(C)C)no1` (stereo partly drawn) [Example 15, 3-(tert-butyl)-N-((1R)-1-(4-(7-(4-(3-(4-(2,6-dioxopiperidin-3-yl)phenyl)cyclobutyl)piperazin-1-yl)-9H-pyrimido[4,5-b]indol-4-yl)-2-methylphenyl)ethyl)-1,2,4-oxadiazole-5-carboxamide]: the IC50 in the test on HEK-293 cells (Homo sapiens) is over 10000 nM. On BTK, this compound displayed a DC50 of 0.616 nM.

As to `Cc1c([C@@H](C)NC(=O)c2noc(C(C)(C)C)n2)ccc(-c2ncnc3[nH]c4cc(N5CCN(CC6CCN(Cc7ccc8c(c7)C(C)(C)C(=O)N8C7CCC(=O)NC7=O)CC6)CC5)ccc4c23)c1F` (stereo partly drawn) [Example 98, 5-(tert-butyl)-N-((1R)-1-(4-(7-(4-((1-((1-(2,6-dioxopiperidin-3-yl)-3,3-dimethyl-2-oxoindolin-5-yl)methyl)piperidin-4-yl)methyl)piperazin-1-yl)-9H-pyrimido[4,5-b]indol-4-yl)-3-fluoro-2-methylphenyl)ethyl)-1,2,4-oxadiazole-3-carboxamide], the IC50 in the test with HEK-293 cells (Homo sapiens) worked out at 7280 nM. It took 1.97 nM to reach half-maximal degradation at BTK (DC50).

For `Cc1cc(-c2ncnc3[nH]c4nc(C5CCN(CC6CCN(c7ccc(N8CCC(=O)NC8=O)cc7)CC6)CC5)ccc4c23)ccc1[C@@H](C)NC(=O)c1nc(C(C)(C)C)no1` [Example 39, (R)-3-(tert-butyl)-N-(1-(4-(7-(1-((1-(4-(2,4-dioxotetrahydropyrimidin-1(2H)-yl)phenyl)piperidin-4-yl)methyl)piperidin-4-yl)-9H-pyrido[3′,2′:4,5]pyrrolo[2,3-d]pyrimidin-4-yl)-2-methylphenyl)ethyl)-1,2,4-oxadiazole-5-carboxamide], the IC50 with HEK-293 cells (Homo sapiens) came out at 4020 nM. At BTK, this compound came in with a DC50 of 0.725 nM.
